This is an account of results in US20020094522A1, “Means and methods for monitoring non-nucleoside reverse transcriptase inhibitor antiretroviral therapy and guiding therapeutic decisions in the treatment of HIV/AIDS” (priority 2000, published 2002).

Holding throughout (type): cell-based, HIV-1
Experiment [1] has as its system RTV-757 (patient sample 98-757). As to the kind of experiment: Phenotypic susceptibility assay, RTV-757. To be noted: RTV-757, same patient after additional 8 weeks of treatment. On the procedure:
(§1) Transfections were performed using a calcium-phosphate precipitation procedure. […] Cell lysates were assayed for luciferase activity (FIG. 3).
(§2) The drug inhibition curves are shown in (FIG. 3).
A resistance test vector was constructed as described in Example 1 from a patient sample designated 98-1033. […] Isolation of viral RNA and RT/PCR was used to generate a patient derived segment that comprised viral sequences coding for all of PR and aa 1-313 of RT. The PDS was inserted into an indicator gene viral vector to generate resistance test vectors designated RTV-1033 and RTV-757. RTV-1033 and RTV-757 were then tested in a phenotypic assay to determine accurately and quantitatively the level of susceptibility to a panel of anti-retroviral drugs. […] An IC50 was determined for the resistance test vector pool for each drug tested. The pattern of susceptibility to all of the drugs tested was examined and compared to known patterns of susceptibility.

The test system of experiment [2] is RTV-652 (patient sample 98-652). The note with it: values <1 = increased susceptibility. The text has this:
The resistance test vectors containing a functional luciferase gene cassette were constructed and host cells were transfected with the resistance test vector DNA. The resistant test vectors contained patient-derived reverse transcriptase and protease sequences that were either susceptible or resistant to the antiretroviral agents, such as nucleoside reverse transcriptase inhibitors, non-nucleoside reverse transcriptase inhibitors and protease inhibitors. The resistance test vector viral particles produced by transfecting the resistance test vector DNA into host cells, either in the presence or absence of protease inhibitors, were used to infect target host cells grown either in the absence of NRTI or NNRTI or in the presence of increasing concentrations of the drug. […] The IC50 values were determined by plotting percent drug inhibition vs. log10 drug concentration.
Host cells were seeded in 10-cm-diameter dishes and were transfected several days after plating with resistance test vector plasmid DNA and the envelope expression vector. […] HIV capsid protein (p24) levels in the harvested cell culture media were determined by an EIA method as described by the manufacturer (SIAC; Frederick, Md.). […] The inhibitory effect of the drug was determined using the following equation: […]
An IC50 was determined for the resistance test vector pool for each drug tested.

The subject of experiment [3] is RTV-209 (patient sample 97-209). The experiment is described as follows: Phenotypic susceptibility assay, RTV-209. To be noted: RTV-209, patient-derived pool. As to the method:
as §1, §2
A resistance test vector was constructed as described in Example 1 from a patient sample designated 97-209. This patient had been previously treated with AZT, ddI, d4T and 3TC (NRTIs), indinavir (a PRIs) and adefovir. Isolation of viral RNA and RT/PCR was used to generate a patient derived segment that comprised viral sequences coding for all of PR and aa 1-313 of RT. The PDS was inserted into an indicator gene viral vector to generate resistance test vector designated RTV-209. RTV-209 was then tested in a phenotypic assay to determine accurately and quantitatively the level of susceptibility to a panel of anti-retroviral drugs. […] An IC50 was determined for the resistance test vector pool for each drug tested. […]. The pattern of susceptibility to all of the drugs tested was examined and compared to known patterns of susceptibility.

The test system of experiment [4] is P225H-RTV (HIV reverse transcriptase P225H). The experiment is described as follows: Phenotypic susceptibility assay, P225H-RTV. The note with it: P225H mutation alone. As to the method: as §1, §2
Resistance test vectors were constructed containing the P225H mutation alone and in combination with other known drug resistance mutations (K103N, Y181C) known to modulate the HIV susceptibility to NNRTIs. […] (Sakar G and Sommar SS (1994) Biotechniques 8(4), 404-407). […] The pattern of phenotypic susceptibility to the NNRTI, delavirdine in the P225H-RTV was altered as compared to wild type.

Experiment [5] concerns RTV-1057 (patient sample 98-1057). The experiment is described as follows: Phenotypic susceptibility assay, RTV-1057. The note with it: RTV-1057, patient-derived pool. As to the method: as §1, §2
A resistance test vector was constructed as described in Example 1 from a patient sample designated 98-1057. This patient had been previously treated with ddI, d4T, AZT, and 3TC (NRTIs), saquinavir and indinavir (PRIs) and delavirdine (an NNRTI). Isolation of viral RNA and RT/PCR was used to generate a patient derived segment that comprised viral sequences coding for all of PR and aa 1-313 RT. The PDS was inserted into an indicator gene viral vector to generate resistance test vector designated RTV-1057. RTV-1057 was then tested in a phenotypic assay to determine accurately and quantitatively the level of susceptibility to a panel of anti-retroviral drugs. […] An IC50 was determined for the resistance test vector pool for each drug tested. The pattern of susceptibility to all of the drugs tested was examined and compared to known patterns of susceptibility.

Experiment [6] relates to RTV-675 (patient sample 98-675). As to the kind of experiment: Phenotypic susceptibility assay, RTV-675. To be noted: RTV-675, patient-derived pool. On the procedure:
as §1, §2
A resistance test vector was constructed as described in Example 1 from a patient sample designated 98-675. This patient had been previously treated with ddI, AZT, and 3TC (NRTIs), and saquinavir and nelfinavir (PRIs). Isolation of viral RNA and RT/PCR was used to generate a patient derived segment that comprised viral sequences coding for all of PR and aa 1-313 of RT. The PDS was inserted into an indicator gene viral vector to generate a resistance test vector designated RTV-675. RTV-675 was then tested in a phenotypic assay to determine accurately and quantitatively the level of susceptibility to a panel of anti-retroviral drugs. […] The pattern of susceptibility to all of the drugs tested was examined and compared to known patterns of susceptibility.

Each structure is given as a SMILES string.

Regarding `CC(C)Nc1cccnc1N1CCN(C(=O)c2cc3cc(NS(C)(=O)=O)ccc3[nH]2)CC1` [delavirdine], the “fold decrease in susceptibility (IC50)” value was 10 fold in experiment [1], 75 fold in experiment [3], 35 fold in experiment [5] and 2.1 fold in experiment [6]. In addition, in experiment [2], the “fold change in susceptibility (IC50)” value is reported as 0.97 fold. Moreover, in experiment [4], the “change in susceptibility compared to wild type control RTV” value was “more susceptible to delavirdine than the wild type control RTV”.

With `Cc1ccnc2c1NC(=O)c1cccnc1N2C1CC1` [nevirapine], the “fold decrease in susceptibility (IC50)” value in experiment [1] is on record as “greater than 800 fold”; in experiment [3], “greater than 800 fold”; in experiment [5], 610 fold; in experiment [6], 6 fold. Also, the “fold change in susceptibility (IC50)” value in experiment [2] is 5 fold. For the same compound, the “change in susceptibility compared to wild type control RTV” value in experiment [4] was “No significant change in nevirapine susceptibility”.
